# Reference: US9445590B2, “Fungicidal composition comprising a pyridylethylbenzamide derivative and a compound capable of inhibiting the transport of electrons of the respiratory chain in phytopathogenic fungal organisms” (BAYER INTELLECTUAL PROPERTY GMBH, priority 2004, dated 2016)
# What was measured:
# [1] = system: Pyrenophora teres; assay: Efficacy against Pyrenophora teres on barley plants (preventive spray); assay type: in vivo; details: 288 h, grading 12 days after contamination
# Experimental: (§1) The active ingredients tested are prepared by potter homogenisation in a mixture of acetone/tween/water. This suspension is then diluted with water to obtain the desired active material concentration.
# Barley plants (Express variety) in starter cups, sown on a 50/50 peat soil-pozzolana substrate and grown at 12° C., are treated at the 1-leaf stage (10 cm tall) by spraying with the aqueous suspension described above. Plants, used as controls, are treated with an aqueous solution not containing the active material.
# After 24 hours, the plants are contaminated by spraying them with an aqueous suspension of Pyrenophora teres spores (12 000 spores per ml). The spores are collected from a 12-day-old culture. The contaminated barley plants are incubated for 24 hours at about 20° C. and at 100% relative humidity, and then for 12 days at 80% relative humidity.
# Grading (% of efficacy) is carried out 12 days after the contamination, in comparison with the control plants.
# [2] = system: Alternaria brassicae; assay: Efficacy against Alternaria brassicae (in vitro), growth on PDA medium; assay type: cell-based; details: Alternaria brassicae, 336 h, radial growth after 14 days
# Experimental: The growth of Alternaria brassicae was followed on PDA medium containing the compounds alone or in mixtures. The PDA medium is prepared by mixing 39 grams of PDA (Merck) in 1 litter of demineralised water. The medium is sterilized by autoclave 15 minutes at 121° C. The compounds are dissolved in acetone and added to the medium before pouring it in Petri dishes. After medium drying, the fungus is inoculated on the medium and allowed to growth at 19° C. The percentage of efficacy is noted after 14 days of growth (measurement of the radial growth) of the fungus in comparison with a control. […]
# [3] = system: Erysiphe graminis f. sp. tritici; assay: Efficacy against Erysiphe graminis f. sp. tritici on wheat plants (preventive spray); assay type: in vivo; details: Blumeria graminis, grading 7 to 14 days after contamination
# Experimental: as §1
# Wheat plants (Audace variety) in starter cups, sown on 50/50 peat soil-pozzolana substrate and grown at 12° C., are treated at the 1-leaf stage (10 cm tall) by spraying with the aqueous suspension described above.
# (§2) Plants, used as controls, are treated with an aqueous solution not containing the active material.
# After 24 hours, the plants are contaminated by dusting them with Erysiphe graminis f. sp. tritici spores, the dusting being carried out using diseased plants.
# Grading is carried out 7 to 14 days after the contamination, in comparison with the control plants.
# (§3) The formulated compounds are diluted with water to obtain the desired active material concentration.
# Wheat plants (Audace variety) in starter cups, sown on 50/50 peat soil-pozzolana substrate and grown at 12° C., are treated at the 1-leaf stage (10 cm tall) by spraying with the aqueous suspension described above. Plants, used as controls, are treated with an aqueous solution not containing the active material.
# [4] = system: Sphaerotheca fuliginea; assay: Efficacy against Sphaerotheca fuliginea on gherkin plants (preventive spray); assay type: in vivo; details: Podosphaera fuliginea, 504 h, grading 21 days after contamination
# Experimental: as §1
# Gherkin plants (Vert petit de Paris variety) in starter cups, sown on a 50/50 peat soil-pozzolana substrate and grown at 20° C./23° C., are treated at the 2-leaves stage by spraying with the aqueous suspension described above. Plants, used as controls, are treated with an aqueous solution not containing the active material.
# After 24 hours, the plants are contaminated by spraying them with an aqueous suspension of Sphaerotheca fuliginea spores (100 000 spores per ml). The spores are collected from a contaminated plants. The contaminated gherkin plants are incubated at about 20° C./25° C. and at 60/70% relative humidity.
# Grading (% of efficacy) is carried out 21 days after the contamination, in comparison with the control plants.
# [5] = system: Botrytis cinerea; assay: Efficacy against Botrytis cinerea on gherkin plants (preventive spray); assay type: in vivo; details: Botrytis cinerea, grading 5 to 7 days after contamination
# Experimental: as §1
# Gherkin plants (Petit vert de Paris variety) in starter cups, sown on a 50/50 peat soil-pozzolana substrate and grown at 18-20° C., are treated at the cotyledon Z11 stage by spraying with the aqueous suspension described above. Plants, used as controls, are treated with an aqueous solution not containing the active material.
# After 24 hours, the plants are contaminated by depositing drops of an aqueous suspension of Botrytis cinerea spores (150,000 spores per ml) on upper surface of the leaves. The spores are collected from a 15-day-old culture and are suspended in a nutrient solution composed of: • 20 g/L of gelatine • 50 g/L of cane sugar • 2 g/L of NH4NO3 • 1 g/L of KH2PO4
# The contaminated gherkin plants are settled for 5/7 days in a climatic room at 15-11° C. (day/night) and at 80% relative humidity. Grading is carried out 5 to 7 days after contamination, in comparison with the control plants.
# Gherkin plants (Petit vert de Paris variety) in starter cups, sown on a 50/50 peat soil-pozzolana substrate and grown at 18-20° C., are treated at the cotyledon Z 11 stage by spraying with the aqueous suspension described above. Plants, used as controls, are treated with an aqueous solution not containing the active material.
# as §3
# [6] = system: Alternaria brassicae; assay: Efficacy against Alternaria brassicae on radish plants (preventive spray); assay type: in vivo; details: Example 13, dose 4 ppm, grading 6 to 7 days after contamination
# Experimental: as §3
# Radish plants (Pernot variety) in starter cups, sown on a 50/50 peat soil-pozzolana substrate and grown at 18-20° C., are treated at the cotyledon stage by spraying with the aqueous suspension described above.
# as §2
# After 24 hours, the plants are contaminated by spraying them with an aqueous suspension of Alternaria brassicae spores (40,000 spores per cm^3). The spores are collected from a 12-13-day-old culture.
# The contaminated radish plants are incubated for 6-7 days at about 18° C., under a humid atmosphere.
# Grading is carried out 6 to 7 days after the contamination, in comparison with the control plants.
smiles,measurement,setting,value
"O=C(NCCc1ncc(C(F)(F)F)cc1Cl)c1ccccc1C(F)(F)F [Compound 1, N-{2-[3-chloro-5-(trifluoromethyl)-2-pyridinyl]ethyl}-2-trifluoromethylbenzamide]",Emax at 4 g/ha,"[1]; Example 1, dose 4 g/ha",20%
same,Emax at 8 g/ha,"[1]; Example 1, dose 8 g/ha",50%
same,Emax at 0.025 ppm,"[2]; Example 2, dose 0.025 ppm",34%
same,Emax at 0.05 ppm,"[2]; Example 2, dose 0.05 ppm",45%
same,Emax at 0.1 ppm,"[2]; Example 2, dose 0.1 ppm",53%
same,Emax at 0.25 ppm,"[2]; Example 2, dose 0.25 ppm",76%
same,Emax at 0.5 ppm,"[2]; Example 2, dose 0.5 ppm",90%
same,Emax at 125 ppm,"[3]; Example 4, dose 125 ppm",20%
same,Emax at 250 g/ha,"[3]; Example 9, dose 250 g/ha, formulated compounds",50%
same,Emax at 4 ppm,"[4]; Example 11, dose 4 ppm",10%
same,Emax at 8 ppm,"[4]; Example 11, dose 8 ppm",15%
same,Emax at 15 ppm,"[4]; Example 11, dose 15 ppm",25%
same,Emax at 7.8 ppm,"[4]; Example 12, dose 7.8 ppm",10%
same,Emax at 15.6 ppm,"[4]; Example 12, dose 15.6 ppm",18%
same,Emax at 31.2 ppm,"[4]; Example 12, dose 31.2 ppm",86%
same,Emax at 37 ppm,"[5]; Example 5, dose 37 ppm",0%
same,Emax at 111 ppm,"[5]; Example 5, dose 111 ppm",60%
same,Emax at 333 ppm,"[5]; Example 5, dose 333 ppm",90%
same,Emax at 37 ppm,"[5]; Example 6, dose 37 ppm",0%
same,Emax at 111 ppm,"[5]; Example 6, dose 111 ppm",60%
same,Emax at 333 ppm,"[5]; Example 6, dose 333 ppm",100%
same,Emax at 12 ppm,"[5]; Example 7, dose 12 ppm",0%
same,Emax at 37 ppm,"[5]; Example 7, dose 37 ppm",40%
same,Emax at 111 ppm,"[5]; Example 7, dose 111 ppm",92%
same,Emax at 37 ppm,"[5]; Example 8, dose 37 ppm",3%
same,Emax at 111 ppm,"[5]; Example 8, dose 111 ppm",58%
same,Emax at 333 ppm,"[5]; Example 8, dose 333 ppm",75%
same,Emax at 37 ppm,"[5]; Example 10, dose 37 ppm",72%
same,Emax at 31.2 ppm,"[5]; Example 14, dose 31.2 ppm, formulated compounds",20%
same,Emax at 62.5 ppm,"[5]; Example 14, dose 62.5 ppm, formulated compounds",40%
same,Emax at 4 ppm,[6],40%
